# Legend:
# [1] = tested on: mice of ICR strain; experiment: Assay on MTD (maximum tolerated dose) in vivo of mice; settings: for Number of Dead Animals ♂/♀ / Number of animals that died immediately after the injection (a) ♂/♀: male/female; for Number of animals that died immediately after the injection (a) ♂/♀: not counted in mortality rate
# Procedure: Assay on MTD (Maximum Tolerated Dose) In Vivo of Mice
# Assay on Maximum Tolerated Dose of Compound
# Assay animals: mice of ICR strain with a weight of 18-22 g, purchased from Beijing Vital River Laboratories Limited, License SCXK (jing) 2007-0001.
# Administration Regimen: each experimental animal was administered with corresponding dosage of tested substance once by injection of caudal vain every three days. Each dosage was initially designed as 5 times of administration. The specific time of administration depended on the conditions of the animals. It should be carefully observed the behavior conditions of the animals within 2 hours after administration. The animal's behavior was observed every 4 hours in the day of administration. The survival conditions and weight of animals were recorded every day and observed for whether abnormality occurred on the body surface thereof. The experimental animals were sacrificed on 14 day after administration and dissected for observation.
# I group: (20 mg/kg) group;
# II group: (25 mg/kg) group;
# III group: (30 mg/kg) group;
# IV group: solvent control group;
# There were four groups in total. Each group consisted of five male mice and five female mice.
# I group: (40 mg/kg) group;
# II group: (45 mg/kg) group;
# III group: (50 mg/kg) group;
# V group: (60 mg/kg) group;
# There were five groups in total. Each group consisted of six male mice and six female mice.
# [2] = Storage stability detected by HPLC; type: physicochemical; settings: sealed and stored for 9 months under refrigeration conditions
SMILES,"Number of Dead Animals ♂/♀ ([1]; 20 mg/kg, 4 administrations)","Mortality Rate (%) ([1]; 20 mg/kg, 4 administrations, total dosage 80 mg/kg)","Number of Dead Animals ♂/♀ ([1]; 25 mg/kg, 4 administrations)","Mortality Rate (%) ([1]; 25 mg/kg, 4 administrations, total dosage 100 mg/kg)","Number of Dead Animals ♂/♀ ([1]; 30 mg/kg, 3 administrations)","Mortality Rate (%) ([1]; 30 mg/kg, 3 administrations, total dosage 90 mg/kg)","Number of Dead Animals ♂/♀ ([1]; 30 mg/kg, 5 administrations)","Mortality Rate (%) ([1]; 30 mg/kg, 5 administrations, total dosage 150 mg/kg)","Number of Dead Animals ♂/♀ ([1]; 40 mg/kg, 5 administrations)","Mortality Rate (%) ([1]; 40 mg/kg, 5 administrations, total dosage 200 mg/kg)","Number of Dead Animals ♂/♀ ([1]; 50 mg/kg, 5 administrations)","Mortality Rate (%) ([1]; 50 mg/kg, 5 administrations, total dosage 250 mg/kg)","Number of Dead Animals ♂/♀ ([1]; 60 mg/kg, 5 administrations)","Mortality Rate (%) ([1]; 60 mg/kg, 5 administrations, total dosage 300 mg/kg)",stability (degraded product by HPLC) [2],"Number of Dead Animals ♂/♀ ([1]; 45 mg/kg, 5 administrations)","Number of animals that died immediately after the injection (a) ♂/♀ ([1]; 45 mg/kg, 5 administrations)","Number of animals that died immediately after the injection (a) ♂/♀ ([1]; 50 mg/kg, 5 administrations)","Number of Dead Animals ♂/♀ ([1]; 55 mg/kg, 5 administrations)","Number of animals that died immediately after the injection (a) ♂/♀ ([1]; 55 mg/kg, 5 administrations)"
COc1cccc2c1C(=O)c1c(O)c3c(c(O)c1C2=O)C[C@@](O)(C(=O)CO)C[C@@H]3O[C@H]1C[C@H](n2cccc2)[C@H](O)[C@H](C)O1 [3′-Pyrrolyldoxorubicin],5/5,100,5/5,100,5/5,100,–,–,–,–,–,–,–,–,–,–,–,–,–,–
"COc1cccc2c1C(=O)c1c(O)c3c(c(O)c1C2=O)CC(O)(C(=O)COC(=O)CCC(=O)O)CC3OC1CC(n2cccc2)C(O)C(C)O1 (centres unmarked) [Compound A, 3′-pyrrolyldoxorubicin-14-oxo-succinic acid monoester]",–,–,–,–,–,–,0/1,10,3/2,50,5/5,100,5/5,100,–,–,–,–,–,–
"COc1cccc2c1C(=O)c1c(O)c3c(c(O)c1C2=O)CC(O)(C(=O)COC(=O)CCC(=O)NCCN1CCOCC1)CC3O[C@H]1C[C@H](n2cccc2)[C@H](O)[C@H](C)O1.O=P(O)(O)O (stereo partly drawn) [Example 96, 10-((3′-(Pyrrol-1-yl)-2′,3′,6′-Trideoxy-Alpha-L-Lyxo-Hexylpyranyl)Oxy)-7,8,9,10-Tetrahydro-6,8,11-Trihydroxy-13-Oxo-14-(4-((2-(Morpholin-1-yl)Ethyl)Amino)-4-Oxo-Butyrato)-1-Methoxy-5,12-Naphthalenedione Phosphate]",–,–,–,–,–,–,–,–,0/1,–,0/0,–,3/4,–,No obvious degraded product was observed,0/0,1/2,1/1,5/4,5/3

# From patent publication US10294260B2, “Tetracyclic anthraquinone derivatives” (TIANJIN HEMAY ONCOLOGY PHARMACEUTICAL CO., LTD., priority 2012, dated 2019)
